According to PubChem BioAssay (NCI):
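Dose response: 5 concentrations. Exposure: 48 h. Format: 96-well plates. Endpoint: linear interpolation; highest concentration if not reached. GI50 is the concentration that inhibits growth by half. TGI: concentration producing complete growth inhibition.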

Legend:
Experiment in all cases: DTP human tumour cell line panel, 48 h
[1] = system: ACHN renal
[2] = system: HL-60(TB) leukemia
[3] = system: OVCAR-4 ovarian
[4] = system: OVCAR-5 ovarian
[5] = system: DU-145 prostate
[6] = system: A549 NSCLC
[7] = system: SW-620 colon
[8] = system: NCI-H23 lung
[9] = system: NCI-H522 lung
[10] = system: SK-MEL-28 melanoma
[11] = system: HCC-2998 colon
[12] = system: CCRF-CEM leukemia
[13] = system: SNB-19 CNS
[14] = system: OVCAR-3 ovarian
[15] = system: IGROV1 ovarian
[16] = system: HOP-92 NSCLC
[17] = system: RXF 393 renal
[18] = system: NCI/ADR-RES ovarian
[19] = system: SK-OV-3 ovarian
[20] = system: TK-10 renal
[21] = system: SF-268 CNS
[22] = system: NCI-H460 lung
[23] = system: K-562 leukemia
[24] = system: HCT-15 colon
[25] = system: 786-0 renal
[26] = system: UACC-257 melanoma
[27] = system: EKVX NSCLC
[28] = system: SR leukemia
[29] = system: COLO 205 colon
[30] = system: A498 renal
[31] = system: HS 578T breast
[32] = system: PC-3 prostate
[33] = system: MOLT-4 leukemia
[34] = system: MDA-MB-231 breast
[35] = system: MDA-MB-435
[36] = system: HCT-116 colon
[37] = system: U251 CNS
[38] = system: MALME-3M melanoma
[39] = system: SF-295 CNS
[40] = system: CAKI-1 renal
[41] = system: HOP-62 NSCLC
[42] = system: M14 melanoma
[43] = system: SNB-75 CNS
[44] = system: UO-31 renal
[45] = system: T-47D breast
[46] = system: KM12 colon
[47] = system: RPMI-8226 leukemia
[48] = system: SK-MEL-5 melanoma
[49] = system: OVCAR-8 ovarian
[50] = system: HT29 colon
[51] = system: SK-MEL-2 melanoma
[52] = system: NCI-H226 lung
[53] = system: MCF7 breast
[54] = system: LOX IMVI melanoma
[55] = system: SF-539 CNS

`ClC(Cl)c1nc(-c2cccnc2)n2nc(-c3ccccc3)cc2n1` gave a GI50 [1] of 1370 nM, a TGI [1] of 4.94 µM and a GI50 [2] of 2180 nM. It also gave a TGI [2] of 7.19 µM, a GI50 [3] of 2030 nM and a TGI [3] of 5.78 µM. It also gave a GI50 [4] of 1900 nM, a TGI [4] of 5.43 µM and a GI50 [5] of 554 nM. It also gave a TGI [5] of 3.14 µM, a GI50 [6] of 1300 nM and a TGI [6] of 9 µM. For the same compound, the GI50 [7] was 666 nM, the TGI [7] was 5.3 µM and the GI50 [8] was 620 nM. It also gave a TGI [8] of 2.9 µM, a GI50 [9] of 1670 nM and a TGI [9] of 6.03 µM. It also gave a GI50 [10] of 1710 nM, a TGI [10] of 3.51 µM and a GI50 [11] of 639 nM. For the same compound, the TGI [11] was 2150 nM, the GI50 [12] was 2320 nM and the TGI [12] was > 100 µM. The GI50 [13] was 1880 nM, the TGI [13] was 5.89 µM and the GI50 [14] was 1610 nM. For the same compound, the TGI [14] was 4.16 µM, the GI50 [15] was 1630 nM and the TGI [15] was 5.23 µM. It also gave a GI50 [16] of 2160 nM, a TGI [16] of 5.29 µM and a GI50 [17] of 1130 nM. It also gave a TGI [17] of 2.45 µM, a GI50 [18] of 1140 nM and a TGI [18] of 4.18 µM. It also gave a GI50 [19] of 1780 nM, a TGI [19] of 5.02 µM and a GI50 [20] of 1840 nM. It also gave a TGI [20] of 6.49 µM, a GI50 [21] of 2280 nM and a TGI [21] of 5.76 µM. The GI50 [22] was 1090 nM, the TGI [22] was 4.21 µM and the GI50 [23] was 1330 nM. For the same compound, the TGI [23] was > 100 µM, the GI50 [24] was 472 nM and the TGI [24] was 3.44 µM. For the same compound, the GI50 [25] was 3.05 µM, the TGI [25] was > 100 µM and the GI50 [26] was 2390 nM. The TGI [26] was 6.08 µM, the GI50 [27] was 2320 nM and the TGI [27] was 6.21 µM. For the same compound, the GI50 [28] was 348 nM, the TGI [28] was > 100 µM and the GI50 [29] was 592 nM. It also gave a TGI [29] of 2.39 µM, a GI50 [30] of 29.9 nM and a TGI [30] of 2170 nM. It also gave a GI50 [31] of 2500 nM, a TGI [31] of 6.05 µM and a GI50 [32] of 1710 nM. For the same compound, the TGI [32] was 4.68 µM, the GI50 [33] was 984 nM and the TGI [33] was > 100 µM. It also gave a GI50 [34] of 1980 nM, a TGI [34] of 5.07 µM and a GI50 [35] of 1340 nM. The TGI [35] was 2820 nM, the GI50 [36] was 1430 nM and the TGI [36] was 6.29 µM. For the same compound, the GI50 [37] was 1460 nM, the TGI [37] was 5.11 µM and the GI50 [38] was 1590 nM. For the same compound, the TGI [38] was 3.25 µM, the GI50 [39] was 2270 nM and the TGI [39] was 6.52 µM. It also gave a GI50 [40] of 1730 nM, a TGI [40] of 5.51 µM and a GI50 [41] of 1690 nM. It also gave a TGI [41] of 6.44 µM, a GI50 [42] of 1140 nM and a TGI [42] of 2.79 µM.

For `COc1cc(OC)c(OC)cc1/C=C\c1nccc2ccccc12`, the TGI [2] was 73.2 µM, the TGI [3] was > 100 µM and the TGI [43] was 50.6 µM. It also gave a TGI [4] of 98.3 µM, a TGI [44] of 64.1 µM and a TGI [5] of 34.4 µM. For the same compound, the TGI [45] was 80.4 µM, the TGI [6] was > 100 µM and the TGI [7] was 83.4 µM. It also gave a TGI [8] of 51.7 µM, a TGI [46] of 33.5 µM and a TGI [10] of 74.7 µM. The TGI [47] was 59.2 µM, the TGI [12] was > 100 µM and the TGI [13] was 61.4 µM. It also gave a TGI [48] of 29.5 µM, a TGI [15] of 87 µM and a TGI [16] of 32.9 µM. The TGI [17] was 39 µM, the TGI [18] was > 100 µM and the TGI [19] was > 100 µM. The TGI [20] was 88.9 µM, the TGI [21] was 58.8 µM and the TGI [23] was > 100 µM. For the same compound, the TGI [27] was 89.7 µM, the TGI [28] was > 100 µM and the TGI [29] was 38 µM. The TGI [31] was 94.3 µM, the TGI [49] was 78.9 µM and the TGI [32] was 60.2 µM. The TGI [33] was 95.8 µM, the TGI [36] was 33.4 µM and the TGI [37] was 65.5 µM. The TGI [38] was > 100 µM, the TGI [39] was 56.1 µM and the TGI [40] was 68.3 µM. It also gave a TGI [42] of 31.1 µM.

`O=C(N=C1SCCN1C(=O)C(C(F)(F)F)C(F)(F)F)C(C(F)(F)F)C(F)(F)F` was tested, and the TGI [1] was > 100 µM, the TGI [2] was > 100 µM and the TGI [3] was > 100 µM. The TGI [50] was > 100 µM, the TGI [4] was > 100 µM and the TGI [44] was > 100 µM. The TGI [6] was > 100 µM, the TGI [7] was > 100 µM and the TGI [8] was > 100 µM. The TGI [9] was > 100 µM, the TGI [10] was > 100 µM and the TGI [47] was > 100 µM. The TGI [11] was > 100000 nM, the TGI [12] was > 100 µM and the TGI [13] was > 100 µM. The TGI [51] was > 100 µM, the TGI [48] was > 100 µM and the TGI [14] was > 100 µM. For the same compound, the TGI [15] was > 100 µM, the TGI [16] was > 100 µM and the TGI [17] was > 100 µM. The TGI [18] was > 100 µM, the TGI [19] was > 100 µM and the TGI [20] was > 100 µM. The TGI [22] was > 100 µM, the TGI [23] was > 100 µM and the TGI [24] was > 100 µM. For the same compound, the TGI [25] was > 100 µM, the TGI [26] was > 100 µM and the TGI [27] was > 100 µM. The TGI [52] was > 100 µM, the TGI [28] was > 100 µM and the TGI [29] was > 100 µM. The TGI [30] was > 100000 nM, the TGI [49] was > 100 µM and the TGI [32] was > 100 µM. The TGI [33] was > 100 µM, the TGI [53] was > 100 µM and the TGI [34] was > 100 µM. For the same compound, the TGI [35] was > 100000 nM, the TGI [36] was > 100 µM and the TGI [54] was > 100 µM. For the same compound, the TGI [37] was > 100 µM, the TGI [38] was > 100 µM and the TGI [39] was > 100 µM. For the same compound, the TGI [40] was > 100 µM, the TGI [41] was > 100 µM and the TGI [42] was > 100 µM. The TGI [55] was > 100 µM.
